Measurements taken from patent US20240182436A1, “SUBSTITUTED SULFONAMIDE-CHROMAN COMPOUNDS, AND PHARMACEUTICAL COMPOSITIONS, AND METHODS OF USE THEREOF” (priority 2021, published 2024).

tested on: Harmaline-induced tremor; assay: Harmaline-induced Tremor Model; assay type: in vivo; settings: Mus musculus, ip, adult male CD1 mice; test article 30 mg/kg i.p.; harmaline 30 mg/kg i.p.; read-out: Tremor Suppression Activity (magnitude of tremor suppression in percent compared to vehicle)
Description: Harmaline-induced Tremor: Harmaline-induced tremor is widely recognized as an animal model of Essential Tremor (ET). Following acute administration, harmaline produces an 8-16 Hz tremor in rodents, cats, and monkeys that, like ET, is postural and kinetic, involving appendicular and axial musculature (Handforth, A. (2012). Harmaline tremor: underlying mechanisms in a potential animal model of essential tremor. Tremor and Other Hyperkinetic Movements (NY), 2, 02-92-769-1; Handforth, A. (2016). Linking Essential Tremor to the Cerebellum-Animal Model Evidence. Cerebellum, 15(3), 285-298; LeDoux, M. (2005). Harmaline tremor. In Movement Disorders. Elsevier Inc.; Louis, E. D. (2014). Re-thinking the biology of essential tremor: From models to morphology. Parkinsonism and Related Disorders, 20 (SUPPL.1), S88-S93). […] Clinical agents that suppress ET in patients are generally effective in the harmaline-induced tremor model (Handforth 2016). Following acute dosing of harmaline in mice, the tremor frequency (10-20 Hz) is typically recorded using an automated force plate-based system.
Procedure: Tremor activity was measured using a custom-made testing apparatus containing a piezoelectric sensing platform which was connected to an amplifier (A-M Systems model 1700). Adult male CD1 mice were brought to the experiment room for acclimatization 1 h prior to testing. Mice were first placed inside the testing apparatus for 10 min baseline habituation. After the initial habituation, mice were treated with vehicle (10 ml/kg) or test article (30 mg/kg, i.p.) and placed back in the apparatus for an additional 20 min baseline recording. Subsequently, animals were injected with harmaline (30 mg/kg, i.p.) and tremor activity was measured for 20 min. The electric signal of tremor activity was amplified at a sampling rate of 512 Hz with a multichannel amplifier and then acquired, quantized, and digitized by a data acquisition unit (CED Micro 1401). The software Spike2 (v 7.07, Cambridge Electronic Design, Cambridge, UK) was used to analyze the tremor signal by performing Fourier transformation of the data into frequency spectra. Changes in absolute power were expressed relative to each animal's 20-min baseline for the frequencies of 10-20 Hz. Comparisons between treatment and respective vehicle groups were assessed with two-tailed, Student's t-test. The level of statistical significance was defined as p<0.05 (see, e.g., Table 2.1) The magnitude of tremor suppression in percent compared to vehicle is shown in Table 2.2.
A tremor suppression score was defined as the magnitude of tremor suppression in percent compared to vehicle: ≤24% (D), 25-55% (C), 56-70% (B) and 71-100% (A). Not tested (---).

| SMILES | inhibition in vivo at 30 mg/kg [%] |
| --- | --- |
| C[C@H]1COc2ccc(F)cc2[C@H]1CS(N)(=O)=O (relative stereo) [Compound 53, ((3R*,4S*)-6-fluoro-3-methylchroman-4-yl)methanesulfonamide] | 25 to 55 |
| C[C@@H]1COc2cc(F)ccc2[C@H]1NS(N)(=O)=O (relative stereo) [Compound 76, (3(S*),4(S*))-7-fluoro-3-methyl-4-(sulfamoylamino)-3,4-dihydro-2(H)-chromene] | 56 to 70 |
| NS(=O)(=O)CC1CC2(CC2)Oc2cc(F)ccc21 (single isomer, unassigned) [Compound 1, (S*)-(7-fluorospiro[chromane-2,1′-cyclopropan]-4-yl)methanesulfonamide] | 56 to 70 |
| NS(=O)(=O)CC1CCOc2cc(F)cc(F)c21 (single isomer, unassigned) [Compound 17, (S*)-(5,7-difluorochroman-4-yl)methanesulfonamide] | 56 to 70 |
| NS(=O)(=O)C1(C2CCOc3cc(F)ccc32)CC1 (single isomer, unassigned) [Compound 27, (S*)-1-(7-fluorochroman-4-yl)cyclopropane-1-sulfonamide] | ≤ 24 |
| NS(=O)(=O)CC1CCOc2cc(F)c(F)cc21 (single isomer, unassigned) [Compound 29, (S*)-(6,7-difluorochroman-4-yl)methanesulfonamide] | 56 to 70 |
| NS(=O)(=O)CC1CCOc2cc(Cl)ccc21 (single isomer, unassigned) [Compound 31, (S*)-(7-chlorochroman-4-yl)methanesulfonamide] | 71 to 100 |
| NS(=O)(=O)CC1CCOc2cc(C(F)(F)F)ccc21 (single isomer, unassigned) [Compound 37, (S*)-(7-(trifluoromethyl)chroman-4-yl)methanesulfonamide] | 56 to 70 |
| CC1(C)COc2cc(F)ccc2C1CS(N)(=O)=O (single isomer, unassigned) [Compound 43, (S*)-(7-fluoro-3,3-dimethylchroman-4-yl)methanesulfonamide] | ≤ 24 |
| CC1(C)CC(CS(N)(=O)=O)c2ccc(F)cc2O1 (single isomer, unassigned) [Compound 45, (R*)-(7-fluoro-2,2-dimethylchroman-4-yl)methanesulfonamide] | 71 to 100 |
| Cc1ccc2c(c1)OCCC2CS(N)(=O)=O (single isomer, unassigned) [Compound 57, (S*)-(7-methylchroman-4-yl)methanesulfonamide] | ≤ 24 |
| N#Cc1ccc2c(c1)OCCC2CS(N)(=O)=O (single isomer, unassigned) [Compound 59, (S*)-(7-cyanochroman-4-yl)methanesulfonamide] | ≤ 24 |
| C[C@H]1COc2cc(F)c(F)cc2[C@H]1CS(N)(=O)=O (stereo in doubt) [Compound 7, ((3R*,4S*)-6,7-difluoro-3-methylchroman-4-yl)methanesulfonamide] | 25 to 55 |
| C[C@@H]1COc2cc(F)c(F)cc2[C@@H]1CS(N)(=O)=O (stereo in doubt) [Compound 8, ((3S*,4R*)-6,7-difluoro-3-methylchroman-4-yl)methanesulfonamide] | 25 to 55 |
| C[C@@H]1COc2cc(F)c(F)cc2[C@H]1CS(N)(=O)=O (stereo in doubt) [Compound 9, ((3S*,4S*)-6,7-difluoro-3-methylchroman-4-yl)methanesulfonamide] | 25 to 55 |
| C[C@H]1COc2cc(F)c(F)cc2[C@@H]1CS(N)(=O)=O (stereo in doubt) [Compound 10, ((3R*,4R*)-6,7-difluoro-3-methylchroman-4-yl)methanesulfonamide] | ≤ 24 |
| CC[C@@H]1C[C@H](CS(N)(=O)=O)c2ccc(F)cc2O1 (stereo in doubt) [Compound 11, ((2R*,4S*)-2-ethyl-7-fluorochroman-4-yl)methanesulfonamide] | 71 to 100 |

same assay, conditions: adult male CD1 mice; test article 30 mg/kg i.p.; harmaline 30 mg/kg i.p.

| SMILES | Tremor Suppression Activity (magnitude of tremor suppression in percent compared to vehicle) |
| --- | --- |
| NS(=O)(=O)CC1CC2(CC2)Oc2cc(F)ccc21 (single isomer, unassigned) [Compound 2, (R*)-(7-fluorospiro[chromane-2,1′-cyclopropan]-4-yl)methanesulfonamide] | A (71-100% (A)) |
| NS(=O)(=O)CC1CC2(CCC2)Oc2cc(F)ccc21 (single isomer, unassigned) [Compound 3, (S*)-(7-fluorospiro[chromane-2,1′-cyclobutan]-4-yl)methane-sulfonamide] | C (25-55% (C)) |
| NS(=O)(=O)CC1CC2(CCC2)Oc2cc(F)ccc21 (single isomer, unassigned) [Compound 4, (R*)-(7-fluorospiro[chromane-2,1′-cyclobutan]-4-yl)methane-sulfonamide] | B (56-70% (B)) |
| CC1(C)CC(CS(N)(=O)=O)c2cc(F)c(F)cc2O1 (single isomer, unassigned) [Compound 5, (S*)-(6,7-difluoro-2,2-dimethylchroman-4-yl)methanesulfonamide] | C (25-55% (C)) |
| CC1(C)CC(CS(N)(=O)=O)c2cc(F)c(F)cc2O1 (single isomer, unassigned) [Compound 6, (R*)-(6,7-difluoro-2,2-dimethylchroman-4-yl)methanesulfonamide] | A (71-100% (A)) |
| NS(=O)(=O)CC1CCOc2c1ccc(F)c2F (single isomer, unassigned) [Compound 15, (S*)-(7,8-difluorochroman-4-yl)methanesulfonamide] | C (25-55% (C)) |
| NS(=O)(=O)CC1CCOc2c1ccc(F)c2F (single isomer, unassigned) [Compound 16, (R*)-(7,8-difluorochroman-4-yl)methanesulfonamide] | B (56-70% (B)) |
| NS(=O)(=O)C1(C2CCOc3cc(F)ccc32)CC1 (single isomer, unassigned) [Compound 28, (R*)-1-(7-fluorochroman-4-yl)cyclopropane-1-sulfonamide] | C (25-55% (C)) |
| NS(=O)(=O)CC1CCOc2cc(F)c(F)cc21 (single isomer, unassigned) [Compound 30, (R*)-(6,7-difluorochroman-4-yl)methanesulfonamide] | A (71-100% (A)) |
| NS(=O)(=O)CC1CCOc2cc(Cl)ccc21 (single isomer, unassigned) [Compound 32, (R*)-(7-chlorochroman-4-yl)methanesulfonamide] | B (56-70% (B)) |
| NS(=O)(=O)CC1CCOc2cc(C(F)(F)F)ccc21 (single isomer, unassigned) [Compound 38, (R*)-(7-(trifluoromethyl)chroman-4-yl)methanesulfonamide] | A (71-100% (A)) |
| CC1(C)COc2cc(F)ccc2C1CS(N)(=O)=O (single isomer, unassigned) [Compound 44, (R*)-(7-fluoro-3,3-dimethylchroman-4-yl)methanesulfonamide] | C (25-55% (C)) |
| CC1(C)CC(CS(N)(=O)=O)c2ccc(F)cc2O1 (single isomer, unassigned) [Compound 46, (S*)-(7-fluoro-2,2-dimethylchroman-4-yl)methanesulfonamide] | A (71-100% (A)) |
| N#Cc1ccc2c(c1)OCCC2CS(N)(=O)=O (single isomer, unassigned) [Compound 60, (R*)-(7-cyanochroman-4-yl)methanesulfonamide] | C (25-55% (C)) |

same assay, conditions: adult male CD1 mice; test article 30 mg/kg i.p.; harmaline 30 mg/kg i.p.; 10-20 Hz power over 20 min relative to 20-min baseline

| SMILES | Tremor power relative to baseline (mean ± s.e.m.) |
| --- | --- |
| CC1(C)COc2cc(F)ccc2C1CS(N)(=O)=O (single isomer, unassigned) [Compound 44, (R*)-(7-fluoro-3,3-dimethylchroman-4-yl)methanesulfonamide] | 518 ± 109 |
| CC1(C)CC(CS(N)(=O)=O)c2ccc(F)cc2O1 (single isomer, unassigned) [Compound 45, (R*)-(7-fluoro-2,2-dimethylchroman-4-yl)methanesulfonamide] | 144 ± 35 |
| CC1(C)CC(CS(N)(=O)=O)c2ccc(F)cc2O1 (single isomer, unassigned) [Compound 46, (S*)-(7-fluoro-2,2-dimethylchroman-4-yl)methanesulfonamide] | 145 ± 27 |
| CC[C@@H]1C[C@H](CS(N)(=O)=O)c2ccc(F)cc2O1 (stereo in doubt) [Compound 11, ((2R*,4S*)-2-ethyl-7-fluorochroman-4-yl)methanesulfonamide] | 134 ± 32 |
